Read-outs that look alike come from different tables or passages of the source.
Experiments:
HCV 1b replicon = assay: HCV GT1b replicon assay in Huh-7 cells; format: cell-based, Hepatitis C virus; conditions: Huh-7 cells transfected with HCV replicon, 72 hours incubation, read-out: EC50 against HCV 1b genotype
Protocol: (§1) HCV Replicon System was utilized as an evaluation model in the present disclosure for verifying the effects of the compounds disclosed herein on HCV. An HCV Replicon assay was first described in Science, 1999, 285 (5424), 110-3. […] To determine the potential anti-HCV effects of the test compounds, luciferase assay and antibiotic Neomycin resistance gene were tested according to the method described in Science. 1999 Jul. 2; 285 (5424), 110-3 and J. Virol. 2003 March; 77 (5), 3007-19.
(§2) In a word, the compounds disclosed herein were tested by using human hepatic carcinoma cell line which is transfected stably HCV GT1a, GT1b or GT2a replicon respectively, and resistant cells Y93H, L31F, P32L or I302V and wild-type cells HCV 1b. HCV Replicon System disclosed herein containing Neomycin resistance gene and Luciferase Reporter Gene, the level of HCV replication in host cells is characterized by the expression level of the NEO gene expression level or Luciferase Reporter Gene, and the effects of the compounds herein inhibit HCV replication can be evaluated. In this article, a real-time quantitative polymerase chain reaction (qPCR) method was used to detect NEO gene expression level, and chemiluminescence method was used to test Luciferase Reporter Gene expression level.
(§3) 1. Test Method for Measuring EC50 of the Compounds Base on Luciferase Assay.
(§4) The Huh-7 cells transfected with HCV replicons system were seeded into 96-well plates (8,000 cells in 125 μL/well) respectively; each test compound was diluted to desired concentration using 5-fold serial dilutions protocol, 10 doses in duplicate, and added to wells with POD™ 810 Plate Assembler. […] In this paper, experiments were repeated twice and set the holes without compounds as negative control.
(§5) 2. Test Method for Measuring EC50 of the Compounds by Detecting Antibiotic G418 Resistance Gene NEO Gene.
(§6) In this paper, experiments were repeated twice and set the holes without compounds as negative control.

HCV 1a replicon = assay: HCV GT1a replicon assay in Huh-7 cells; format: cell-based, Hepatitis C virus; conditions: Huh-7 cells transfected with HCV replicon, 72 hours incubation, read-out: EC50 against HCV 1a genotype
Protocol: as §1, §2, §3, §4, §5, §6

| SMILES | EC50 (HCV 1b replicon; Hepatitis C virus) | EC50 (HCV 1a replicon; Hepatitis C virus) | EC50 (HCV 1b replicon) | EC50 (HCV 1a replicon) |
| --- | --- | --- | --- | --- |
| COC(=O)N[C@H](C(=O)N1CCC[C@H]1c1ncc(-c2ccc(-c3ccc(-c4ccc5nc([C@@H]6CCCN6C(=O)[C@@H](NC(=O)OC)C(C)C)[nH]c(=O)c5c4)c4c3CC3(CCCC3)C4)cc2)[nH]1)C(C)C [Example 1] | 0.042 nM | 0.76 nM |  |  |
| COC(=O)N[C@H](C(=O)N1CCC[C@H]1c1cc(=O)c2cc(-c3ccc(-c4ccc(-c5cnc([C@@H]6CCCN6C(=O)[C@@H](NC(=O)OC)C(C)C)[nH]5)cc4)c4c3CC3(CCCC3)C4)ccc2[nH]1)C(C)C [Example 2] | 0.087 nM | 1.28 nM |  |  |
| COC(=O)N[C@H](C(=O)N1CCC[C@H]1C1=Nc2cc(-c3ccc(-c4ccc(-c5cnc([C@@H]6CCCN6C(=O)[C@@H](NC(=O)OC)C(C)C)[nH]5)cc4)c4c3CC3(CCCC3)C4)ccc2C(C)(C)N1)C(C)C [Example 3] | 0.04 nM | 0.537 nM |  |  |
| COC(=O)N[C@H](C(=O)N1CCC[C@H]1C1=Nc2cc(-c3ccc(-c4ccc(-c5cnc([C@@H]6CCCN6C(=O)[C@@H](NC(=O)OC)C(C)C)[nH]5)cc4)c4c3CC3(CCCC3)C4)ccc2C2(COC2)N1)C(C)C [Example 4] | 0.016 nM | 0.089 nM |  |  |
| COC(=O)N[C@H](C(=O)N1CCC[C@H]1C1=Nc2cc(-c3ccc(-c4ccc(-c5cnc([C@@H]6CCCN6C(=O)[C@@H](NC(=O)OC)C(C)C)[nH]5)cc4)c4c3CC3(CCCC3)C4)ccc2S(=O)(=O)N1)C(C)C [Example 5] | 0.023 nM | 0.078 nM |  |  |
| COC(=O)N[C@H](C(=O)N1CCC[C@H]1c1nc2ccc(-c3ccc(-c4ccc5nc([C@@H]6CCCN6C(=O)[C@@H](NC(=O)OC)C(C)C)[nH]c(=O)c5c4)c4c3CC3(CCCC3)C4)cc2c(=O)[nH]1)C(C)C [Example 6] | 0.077 nM | 0.109 nM |  |  |
| COC(=O)N[C@H](C(=O)N1CCC[C@H]1c1ncc(C#Cc2ccc(-c3ccc4nc([C@@H]5CCCN5C(=O)[C@@H](NC(=O)OC)C(C)C)[nH]c(=O)c4c3)c3c2CC2(CCCC2)C3)[nH]1)C(C)C [Example 7] | 0.103 nM | 0.21 nM |  |  |
| CCC(C)[C@H](NC(=O)OC)C(=O)N1CCC[C@H]1c1nc(=O)c2cc(-c3ccc(-c4ccc(-c5cnc([C@@H]6CCCN6C(=O)[C@@H](NC(=O)OC)C(C)C)[nH]5)cc4)c4c3CC3(CCCCC3)C4)ccc2[nH]1 (some centres unmarked) [Example 8] | 0.065 nM | 0.982 nM |  |  |
| COC(=O)N[C@H](C(=O)N1C[C@@H](F)C[C@H]1c1nc(-c2ccc(-c3ccc(-c4ccc5nc([C@@H]6C[C@H](F)CN6C(=O)[C@@H](NC(=O)OC)C(C)C)[nH]c(=O)c5c4)c4c3CC3(CCCCC3)C4)cc2)c[nH]1)C(C)C [Example 9] | 0.072 nM | 0.439 nM |  |  |
| COC(=O)N[C@H](C(=O)N1CCC[C@H]1c1ncc(-c2ccc(-c3ccc(-c4ccc5nc([C@@H]6CC7CC7N6C(=O)[C@@H](NC(=O)OC)C(C)C)[nH]c(=O)c5c4)c4c3CC3(CCN(C)CC3)C4)cc2)[nH]1)C(C)C (some centres unmarked) [Example 10] | 0.438 nM | 1.27 nM |  |  |
| COC(=O)N[C@H](C(=O)N1CCC[C@H]1c1ncc(-c2ccc(-c3ccc(-c4ccc5nc([C@@H]6CC7CC7N6C(=O)[C@@H](NC(=O)OC)C(C)C)[nH]c(=O)c5c4)c4c3OC3(CCCC3)O4)cc2)[nH]1)C(C)C (some centres unmarked) [Example 11] | 0.032 nM | 0.068 nM |  |  |
| COC(=O)N[C@H](C(=O)N1CC(F)(F)CC1c1nc(-c2ccc(-c3ccc(-c4ccc5nc([C@@H]6CC(F)(F)CN6C(=O)[C@@H](NC(=O)OC)C(C)C)[nH]c(=O)c5c4)c4c3CC3(CCOCC3)C4)cc2)c[nH]1)C(C)C (some centres unmarked) [Example 12] | 0.049 nM | 0.38 nM |  |  |
| COC(=O)N[C@H](C(=O)N1CCC[C@H]1c1ncc(-c2ccc(-c3ccc(-c4ccc5nc([C@@H]6CCCN6C(=O)[C@@H](NC(=O)OC)c6ccccc6)[nH]c(=O)c5c4)c4c3CC3(CCCC3)C4)cc2)[nH]1)c1ccccc1 [Example 13] | 0.273 nM | 2.07 nM |  |  |
| COC(=O)N[C@@H](C)C(=O)N1CCC[C@H]1c1ncc(-c2ccc(-c3ccc(-c4ccc5nc([C@@H]6CCCN6C(=O)[C@H](C)NC(=O)OC)[nH]c(=O)c5c4)c4c3CC3(CCCC3)C4)cc2)[nH]1 [Example 14] | 0.013 nM | 0.884 nM |  |  |
| COC(=O)N[C@H](C(=O)N1CCC[C@H]1c1ncc(-c2ccc(-c3ccc(-c4ccc5nc([C@@H]6CCCN6C(=O)[C@@H](NC(=O)OC)C6CCCCC6)[nH]c(=O)c5c4)c4c3CC3(CCCC3)C4)cc2)[nH]1)C1CCCCC1 [Example 15] | 0.142 nM | 0.206 nM |  |  |
| COC(=O)N[C@H](C(=O)C1CCCC[C@H]1c1nc2ccc(-c3ccc(-c4ccc(-c5cnc(C6CCCCN6C(=O)[C@@H](NC(=O)OC)C(C)C)[nH]5)cc4)c4c3CC3(CCCC3)C4)cc2c(=O)[nH]1)C(C)C (some centres unmarked) [Example 16] | 0.036 nM | 0.089 nM |  |  |
| COC(=O)N[C@H](C(=O)N1C[C@@H](C)C[C@H]1n1cnc(-c2ccc(-c3ccc(-c4ccc5nc([C@@H]6C[C@H](C)CN6C(=O)[C@@H](NC(=O)OC)C(C)C)[nH]c(=O)c5c4)c4c3CC3(CCCC3)C4)cc2)c1)C(C)C [Example 17] |  |  | 0.006 nM | 0.023 nM |
| COC(=O)N[C@H](C(=O)N1CC(C)(C)C[C@H]1c1ncc(-c2ccc(-c3ccc(-c4ccc5nc([C@@H]6CC(C)(C)CN6C(=O)[C@@H](NC(=O)OC)C(C)C)[nH]c(=O)c5c4)c4c3CC3(CCCC3)C4)cc2)[nH]1)C(C)C [Example 18] | 0.065 nM | 0.326 nM |  |  |
| CC(C)[C@H](NC(=O)Oc1ccccc1)C(=O)N1CC(C)(C)C[C@H]1c1ncc(-c2ccc(-c3ccc(-c4ccc5nc([C@@H]6CC(C)(C)CN6C(=O)[C@@H](NC(=O)Oc6ccccc6)C(C)C)[nH]c(=O)c5c4)c4c3CC3(CCCC3)C4)cc2)[nH]1 [Example 19] | 0.436 nM | 4.77 nM |  |  |
| COC(=O)N[C@H](C(=O)N1CCC[C@H]1C(=O)Nc1ccc(-c2ccc(-c3ccc4nc([C@@H]5CCCN5C(=O)[C@@H](NC(=O)OC)C(C)C)[nH]c(=O)c4c3)c3c2CC2(CCCC2)C3)cc1)C(C)C [Example 20] | 0.685 nM | 3.67 nM |  |  |
| COC(=O)N[C@H](C(=O)N1CC2(CC2)C[C@H]1c1ncc(-c2ccc(-c3ccc(-c4ccc5nc([C@@H]6CC7(CC7)CN6C(=O)[C@@H](NC(=O)OC)C(C)C)[nH]c(=O)c5c4)c4c3CC3(CCCC3)C4)cc2)[nH]1)C(C)C [Example 21] | 0.029 nM | 0.08 nM |  |  |
| COC(=O)N[C@H](C(=O)N1C2CC2C[C@H]1c1ncc(-c2ccc(-c3ccc(-c4ccc5nc([C@@H]6CC7CC7N6C(=O)[C@@H](NC(=O)OC)C(C)C)[nH]c(=O)c5c4)c4c3CC3(CCCC3)C4)cc2)[nH]1)C(C)C (some centres unmarked) [Example 22] | 0.072 nM | 0.561 nM |  |  |
| COC(=O)N[C@H](C(=O)N1[C@@H]2CC[C@@H](C2)[C@H]1c1ncc(-c2ccc(-c3ccc(-c4ccc5nc([C@@H]6[C@H]7CC[C@H](C7)N6C(=O)[C@@H](NC(=O)OC)C(C)C)[nH]c(=O)c5c4)c4c3CC3(CCCC3)C4)cc2)[nH]1)C(C)C [Example 23] | 0.047 nM | 0.31 nM |  |  |
| COC(=O)N[C@H](C(=O)N1CC2(C[C@H]1c1ncc(-c3ccc(-c4ccc(-c5ccc6nc([C@@H]7CCCN7C(=O)[C@@H](NC(=O)OC)C(C)C)[nH]c(=O)c6c5)c5c4CC4(CCCC4)C5)cc3)[nH]1)OCCO2)C(C)C [Example 24] | 0.099 nM | 0.475 nM |  |  |
| COC(=O)N[C@H](C(=O)N1CCC[C@H]1c1ncc(-c2ccc(-c3ccc(-c4ccc5nc([C@@H]6CC7CC7N6C(=O)[C@@H](NC(=O)OC)C(C)C)[nH]c(=O)c5c4)c4c3CC3(CCCC3)C4)c3c2CCC3)[nH]1)C(C)C (some centres unmarked) [Example 25] | 0.103 nM | 0.829 nM |  |  |

Source: patent US9416139B2, “Spiro ring compound as hepatitis C virus (HCV) inhibitor and uses thereof” (SUNSHINE LAKE PHARMA CO., LTD., priority 2012, dated 2016)
